The text below walks through data of PMC5218480 (PLoS ONE, 2017).

For this assay, the system named is MV-4-11 cells. Description: Gene expression microarray analysis (Affymetrix PrimeView) and GSEA. The class given is cell-based, human. Details: RFU PODN (11730768_x_at) / Fold change /veh PODN (11730768_x_at) / RFU LINC00158 (11744669_a_at) / Fold change /veh LINC00158 (11744669_a_at) / RFU DUSP10 (11751237_a_at) / Fold change /veh DUSP10 (11751237_a_at) / RFU ID3 (11757404_x_at) / Fold change /veh ID3 (11757404_x_at) / RFU PLEKHG5 (11737974_s_at) / Fold change /veh PLEKHG5 (11737974_s_at) / RFU LRRC4B (11730491_at) / Fold change /veh LRRC4B (11730491_at) / RFU GIMAP4 (11747438_a_at) / Fold change /veh GIMAP4 (11747438_a_at) / RFU KRT8 (11758183_x_at) / Fold change /veh KRT8 (11758183_x_at) / RFU CNN1 (11734310_a_at) / Fold change /veh CNN1 (11734310_a_at) / RFU VPS37D (11726825_at) / Fold change /veh VPS37D (11726825_at) / RFU C10orf10 (11716522_x_at) / Fold change /veh C10orf10 (11716522_x_at) / RFU KIR2DL2 /// KIR2DL4 /// KIR2DL5A /// KIR2DL5B /// KIR2DS1 /// KIR2DS2 /// KIR2DS3 /// KIR2DS4 /// KIR3DL3 /// KIR3DL3 /// KIR3DS1 (11738374_at) / Fold change /veh KIR2DL2 /// KIR2DL4 /// KIR2DL5A /// KIR2DL5B /// KIR2DS1 /// KIR2DS2 /// KIR2DS3 /// KIR2DS4 /// KIR3DL3 /// KIR3DL3 /// KIR3DS1 (11738374_at) / RFU C1QL1 (11718748_at) / Fold change /veh C1QL1 (11718748_at) / RFU TMPRSS4 (11747572_a_at) / Fold change /veh TMPRSS4 (11747572_a_at) / RFU HAMP (11756126_x_at) / Fold change /veh HAMP (11756126_x_at) / RFU RNFT2 (11725882_a_at) / Fold change /veh RNFT2 (11725882_a_at) / RFU NR4A2 (11747474_a_at) / Fold change /veh NR4A2 (11747474_a_at) / RFU ABCC12 (11746883_a_at) / Fold change /veh ABCC12 (11746883_a_at) / RFU TMEM136 (11760407_x_at) / Fold change /veh TMEM136 (11760407_x_at) / RFU CLDN22 /// WWC2 (11732394_at) / Fold change /veh CLDN22 /// WWC2 (11732394_at) / RFU HLA-DPB1 (11760878_x_at) / Fold change /veh HLA-DPB1 (11760878_x_at) / RFU SPINT1 (11716480_a_at) / Fold change /veh SPINT1 (11716480_a_at) / RFU GAP43 (11754022_s_at) / Fold change /veh GAP43 (11754022_s_at) / RFU A4GNT (11735810_at) / Fold change /veh A4GNT (11735810_at) / RFU PRB3 (11715151_x_at) / Fold change /veh PRB3 (11715151_x_at) / RFU TUBB4B (11761932_at) / Fold change /veh TUBB4B (11761932_at) / RFU CAPN14 (11732068_a_at) / Fold change /veh CAPN14 (11732068_a_at) / RFU TMCC2 (11721928_a_at) / Fold change /veh TMCC2 (11721928_a_at) / RFU IRGQ (11745062_a_at) / Fold change /veh IRGQ (11745062_a_at) / RFU FAM174B (11720279_a_at) / Fold change /veh FAM174B (11720279_a_at) / RFU TMPRSS4 (11748680_a_at) / Fold change /veh TMPRSS4 (11748680_a_at) / RFU FAM212B (11763350_a_at) / Fold change /veh FAM212B (11763350_a_at) / RFU PLEKHG5 (11743358_a_at) / Fold change /veh PLEKHG5 (11743358_a_at) / RFU ZSCAN30 (11745921_a_at) / Fold change /veh ZSCAN30 (11745921_a_at) / RFU CMKLR1 (11741424_a_at) / Fold change /veh CMKLR1 (11741424_a_at) / RFU LOC101060620 /// MAPK8IP1 (11723275_at) / Fold change /veh LOC101060620 /// MAPK8IP1 (11723275_at) / RFU SPTSSB (11747773_x_at) / Fold change /veh SPTSSB (11747773_x_at) / RFU PRSS12 (11739890_at) / Fold change /veh PRSS12 (11739890_at) / RFU BIN1 (11741810_x_at) / Fold change /veh BIN1 (11741810_x_at) / RFU WNT11 (11732464_a_at) / Fold change /veh WNT11 (11732464_a_at) / RFU C10orf10 (11716521_a_at) / Fold change /veh C10orf10 (11716521_a_at) / RFU C5orf56 (11738089_at) / Fold change /veh C5orf56 (11738089_at) / RFU CYB561 (11721691_x_at) / Fold change /veh CYB561 (11721691_x_at) / RFU ANKRD19P (11752326_a_at) / Fold change /veh ANKRD19P (11752326_a_at) / RFU OR2T12 /// OR2T33 /// OR2T8 (11738714_s_at) / Fold change /veh OR2T12 /// OR2T33 /// OR2T8 (11738714_s_at) / RFU VCAN (11748164_a_at) / Fold change /veh VCAN (11748164_a_at) / RFU JSRP1 (11732532_at) / Fold change /veh JSRP1 (11732532_at) / RFU KRTAP10-11 (11738290_x_at) / Fold change /veh KRTAP10-11 (11738290_x_at) / RFU MYO3A (11730013_a_at) / Fold change /veh MYO3A (11730013_a_at) / RFU EBF3 (11725865_a_at) / Fold change /veh EBF3 (11725865_a_at) / RFU CAMK2N1 (11719241_x_at) / Fold change /veh CAMK2N1 (11719241_x_at) / RFU C5orf56 (11738088_a_at) / Fold change /veh C5orf56 (11738088_a_at) / RFU OLFML3 (11715873_a_at) / Fold change /veh OLFML3 (11715873_a_at) / RFU LOC100653217 /// NTM (11731650_a_at) / Fold change /veh LOC100653217 /// NTM (11731650_a_at) / RFU MAPK11 (11762145_a_at) / Fold change /veh MAPK11 (11762145_a_at) / RFU FIZ1 (11724087_x_at) / Fold change /veh FIZ1 (11724087_x_at) / RFU OASL (11726364_x_at) / Fold change /veh OASL (11726364_x_at) / RFU SOX15 (11748057_x_at) / Fold change /veh SOX15 (11748057_x_at) / RFU CD79A (11719716_a_at) / Fold change /veh CD79A (11719716_a_at) / RFU HIST1H1D (11736915_at) / Fold change /veh HIST1H1D (11736915_at) / RFU CASKIN2 (11723855_a_at) / Fold change /veh CASKIN2 (11723855_a_at) / RFU LOC730098 (11760151_x_at) / Fold change /veh LOC730098 (11760151_x_at) / RFU OR4N2 (11742367_at) / Fold change /veh OR4N2 (11742367_at) / RFU PRRT2 (11749266_a_at) / Fold change /veh PRRT2 (11749266_a_at) / RFU SNX32 (11753110_a_at) / Fold change /veh SNX32 (11753110_a_at) / RFU CDHR5 (11726645_a_at) / Fold change /veh CDHR5 (11726645_a_at) / RFU RCAN1 (11760418_a_at) / Fold change /veh RCAN1 (11760418_a_at) / RFU FAM167A (11723789_a_at) / Fold change /veh FAM167A (11723789_a_at) / RFU FAM26E (11764081_at) / Fold change /veh FAM26E (11764081_at) / RFU ISYNA1 (11749810_s_at) / Fold change /veh ISYNA1 (11749810_s_at) / RFU ACY1 (11761880_at) / Fold change /veh ACY1 (11761880_at) / RFU 11764098_at / Fold change /veh 11764098_at / RFU SAMD14 (11745864_x_at) / Fold change /veh SAMD14 (11745864_x_at) / RFU NPB (11741838_a_at) / Fold change /veh NPB (11741838_a_at) / RFU TMPRSS6 (11731388_a_at) / Fold change /veh TMPRSS6 (11731388_a_at) / RFU KRTAP10-2 (11738614_at) / Fold change /veh KRTAP10-2 (11738614_at) / RFU ARHGAP8 /// PRR5-ARHGAP8 (11727945_x_at) / Fold change /veh ARHGAP8 /// PRR5-ARHGAP8 (11727945_x_at) / RFU KRTAP5-7 /// NADSYN1 (11734609_at) / Fold change /veh KRTAP5-7 /// NADSYN1 (11734609_at) / RFU RASL12 (11751679_a_at) / Fold change /veh RASL12 (11751679_a_at) / RFU CDKN2B (11736163_a_at) / Fold change /veh CDKN2B (11736163_a_at) / RFU PRF1 (11729649_at) / Fold change /veh PRF1 (11729649_at) / RFU, ZNF638 /// ZNF638-IT1 / Fold change vs veh, ZNF638 /// ZNF638-IT1 / RFU, PANK3 / Fold change vs veh, PANK3 / RFU, SH3YL1 / Fold change vs veh, SH3YL1 / RFU, ZEB2 / Fold change vs veh, ZEB2 / RFU, NRIP1 / Fold change vs veh, NRIP1 / RFU, PTTG1IP / Fold change vs veh, PTTG1IP / RFU, CAPN2 / Fold change vs veh, CAPN2 / RFU, MED14 / Fold change vs veh, MED14 / RFU, SNORA58 / Fold change vs veh, SNORA58 / RFU, C1orf63 / Fold change vs veh, C1orf63 / RFU, LRRFIP1 / Fold change vs veh, LRRFIP1 / RFU, NDUFAF7 / Fold change vs veh, NDUFAF7 / RFU, SLC12A2 / Fold change vs veh, SLC12A2 / RFU, IBTK / Fold change vs veh, IBTK / RFU, ESF1 / Fold change vs veh, ESF1 / Fold change vs veh, TMEM50B / RFU, TAOK1 / Fold change vs veh, TAOK1 / RFU, ACBD3 / Fold change vs veh, ACBD3 / RFU, TMA16 / Fold change vs veh, TMA16 / RFU, RWDD3 / Fold change vs veh, RWDD3 / RFU, BCAT1 / Fold change vs veh, BCAT1 / RFU, EDEM3 / Fold change vs veh, EDEM3 / RFU, TMEM33 / Fold change vs veh, TMEM33 / RFU, WDR75 / Fold change vs veh, WDR75 / RFU, AHCTF1 / Fold change vs veh, AHCTF1 / RFU, TFRC / Fold change vs veh, TFRC / RFU, ZDHHC17 / Fold change vs veh, ZDHHC17 / RFU, NOM1 / Fold change vs veh, NOM1 / RFU, ARL8B / Fold change vs veh, ARL8B / RFU, ZBTB11 / Fold change vs veh, ZBTB11 / RFU, TAMM41 / Fold change vs veh, TAMM41 / RFU, KIAA1704 /// LOC100996395 / Fold change vs veh, KIAA1704 /// LOC100996395 / RFU, ING1 / Fold change vs veh, ING1 / RFU, TRMT61B / Fold change vs veh, TRMT61B / RFU, FUBP3 / Fold change vs veh, FUBP3 / RFU, TP53 / Fold change vs veh, TP53 / RFU, TNKS2 / Fold change vs veh, TNKS2 / RFU, ZFP14 / Fold change vs veh, ZFP14 / RFU, ACTR2 / Fold change vs veh, ACTR2 / RFU, PPP3R1 / Fold change vs veh, PPP3R1 / RFU, PIK3R1 / Fold change vs veh, PIK3R1 / RFU, HNRNPA1 / Fold change vs veh, HNRNPA1 / RFU, RNF170 / Fold change vs veh, RNF170 / RFU, ZNF28 / Fold change vs veh, ZNF28 / RFU, RNGTT / Fold change vs veh, RNGTT / RFU, OGT / Fold change vs veh, OGT / RFU, BRD1 / Fold change vs veh, BRD1 / RFU, MARS / Fold change vs veh, MARS / RFU, ZNF655 / Fold change vs veh, ZNF655 / RFU, FAHD1 / Fold change vs veh, FAHD1 / RFU, BDP1 / Fold change vs veh, BDP1 / RFU, LRRCC1 / Fold change vs veh, LRRCC1 / RFU, ARID1A / Fold change vs veh, ARID1A / RFU, ZNF146 / Fold change vs veh, ZNF146 / RFU, ZNF330 / Fold change vs veh, ZNF330 / RFU, GPN3 / Fold change vs veh, GPN3 / RFU, C9orf123 / Fold change vs veh, C9orf123 / RFU, N4BP2L2 / Fold change vs veh, N4BP2L2 / RFU, ARFIP1 / Fold change vs veh, ARFIP1 / RFU, FAM179B / Fold change vs veh, FAM179B / RFU, BCL10 / Fold change vs veh, BCL10 / RFU, UHRF1BP1L / Fold change vs veh, UHRF1BP1L / RFU, BET1 / Fold change vs veh, BET1 / RFU, CNOT2 / Fold change vs veh, CNOT2 / RFU, ZNF268 / Fold change vs veh, ZNF268 / Fold change vs veh, ZNF507 / RFU, DGCR2 / Fold change vs veh, DGCR2 / RFU, WDSUB1 / Fold change vs veh, WDSUB1 / Fold change vs veh, HSP90B1 /// MIR3652 / RFU, ADSS / Fold change vs veh, ADSS / RFU, GK / Fold change vs veh, GK / RFU, ZNF148 / Fold change vs veh, ZNF148 / RFU, TAF9 / Fold change vs veh, TAF9 / RFU, SLC1A5 / Fold change vs veh, SLC1A5 / RFU, SLMO2 / Fold change vs veh, SLMO2 / RFU, ABCC4 / Fold change vs veh, ABCC4 / RFU, LOC101060439 /// RAP1B / Fold change vs veh, LOC101060439 /// RAP1B / RFU, RFX7 / Fold change vs veh, RFX7 / RFU, GTPBP10 / Fold change vs veh, GTPBP10 / RFU, CNEP1R1 / Fold change vs veh, CNEP1R1 / RFU, BIVM-ERCC5 /// ERCC5 / Fold change vs veh, BIVM-ERCC5 /// ERCC5 / RFU, ILF3 / Fold change vs veh, ILF3 / RFU 11762660_at / Fold change /veh 11762660_at / RFU VCAN (11757783_s_at) / Fold change /veh VCAN (11757783_s_at) / RFU DDX43 (11728927_at) / Fold change /veh DDX43 (11728927_at) / RFU KRT8 (11758188_x_at) / Fold change /veh KRT8 (11758188_x_at) / RFU NKD1 (11759106_at) / Fold change /veh NKD1 (11759106_at) / RFU SRD5A1 (11742802_a_at) / Fold change /veh SRD5A1 (11742802_a_at) / RFU TPSAB1 /// TPSB2 (11721975_s_at) / Fold change /veh TPSAB1 /// TPSB2 (11721975_s_at) / RFU GSTM3 (11746129_a_at) / Fold change /veh GSTM3 (11746129_a_at) / RFU IL23R (11737362_x_at) / Fold change /veh IL23R (11737362_x_at) / RFU TMEM51 (11727254_a_at) / Fold change /veh TMEM51 (11727254_a_at) / RFU PIWIL2 (11732686_x_at) / Fold change /veh PIWIL2 (11732686_x_at) / RFU ORM1 (11744905_x_at) / Fold change /veh ORM1 (11744905_x_at) / RFU CCDC152 (11743942_at) / Fold change /veh CCDC152 (11743942_at) / RFU ECM1 (11717891_a_at) / Fold change /veh ECM1 (11717891_a_at) / RFU IL23R (11748794_a_at) / Fold change /veh IL23R (11748794_a_at) / RFU TNFAIP8L3 (11732012_x_at) / Fold change /veh TNFAIP8L3 (11732012_x_at) / RFU MBOAT4 (11741988_at) / Fold change /veh MBOAT4 (11741988_at) / RFU 11764193_at / Fold change /veh 11764193_at / RFU TMEM53 (11763286_at) / Fold change /veh TMEM53 (11763286_at) / RFU MAGEB2 (11727129_at) / Fold change /veh MAGEB2 (11727129_at) / RFU TMEM200A (11744735_a_at) / Fold change /veh TMEM200A (11744735_a_at) / RFU CCDC152 (11751479_a_at) / Fold change /veh CCDC152 (11751479_a_at) / RFU FAM211A (11726209_a_at) / Fold change /veh FAM211A (11726209_a_at) / RFU RGS16 (11746705_a_at) / Fold change /veh RGS16 (11746705_a_at) / RFU VCAN (11755009_s_at) / Fold change /veh VCAN (11755009_s_at) / RFU RHOB (11743442_s_at) / Fold change /veh RHOB (11743442_s_at) / RFU RGS16 (11720943_a_at) / Fold change /veh RGS16 (11720943_a_at) / RFU RGS16 (11720944_at) / Fold change /veh RGS16 (11720944_at) / RFU, VPS4B / Fold change vs veh, VPS4B / RFU, CREB1 / Fold change vs veh, CREB1 / RFU, DNAJC13 / Fold change vs veh, DNAJC13 / RFU, GNAQ / Fold change vs veh, GNAQ / RFU, CDK5R1 / Fold change vs veh, CDK5R1 / RFU, ZRANB3 / Fold change vs veh, ZRANB3 / RFU, CUL4A / Fold change vs veh, CUL4A / RFU, CCNY / Fold change vs veh, CCNY / RFU, UFL1 / Fold change vs veh, UFL1 / RFU, COG3 / Fold change vs veh, COG3 / RFU, DIAPH2 / Fold change vs veh, DIAPH2 / RFU, SKA2 / Fold change vs veh, SKA2 / RFU, AFF3 / Fold change vs veh, AFF3 / RFU, LMF1 / Fold change vs veh, LMF1 / RFU, IPO11 / Fold change vs veh, IPO11 / RFU, DFFB / Fold change vs veh, DFFB / RFU, FOXP1 / Fold change vs veh, FOXP1 / RFU, CARD8 / Fold change vs veh, CARD8 / RFU, STRN3 / Fold change vs veh, STRN3 / RFU, ADK / Fold change vs veh, ADK / RFU, RASSF2 / Fold change vs veh, RASSF2 / RFU, WIPF1 / Fold change vs veh, WIPF1 / RFU, LARP1B / Fold change vs veh, LARP1B / RFU, RASA1 / Fold change vs veh, RASA1 / RFU, RB1 / Fold change vs veh, RB1 / RFU, PPFIA1 / Fold change vs veh, PPFIA1 / RFU, MAT2A / Fold change vs veh, MAT2A / RFU, CCT5 / Fold change vs veh, CCT5 / RFU, WDR92 / Fold change vs veh, WDR92 / RFU, CUX1 / Fold change vs veh, CUX1 / RFU, TTC7A / Fold change vs veh, TTC7A / RFU, TMEM135 / Fold change vs veh, TMEM135 / RFU, DEPTOR / Fold change vs veh, DEPTOR / RFU, CPM / Fold change vs veh, CPM / RFU, DNAJB6 / Fold change vs veh, DNAJB6 / RFU, CACNA2D3 / Fold change vs veh, CACNA2D3 / RFU, DTX4 / Fold change vs veh, DTX4 / RFU, TFCP2 / Fold change vs veh, TFCP2 / RFU, GMCL1 /// GMCL1P1 / Fold change vs veh, GMCL1 /// GMCL1P1 / RFU, AEBP2 / Fold change vs veh, AEBP2 / RFU, SNHG1 /// SNORD22 /// SNORD25 /// SNORD26 /// SNORD27 /// SNORD28 /// SNORD29 /// SNORD31 / Fold change vs veh, SNHG1 /// SNORD22 /// SNORD25 /// SNORD26 /// SNORD27 /// SNORD28 /// SNORD29 /// SNORD31 / Fold change (Aza/veh), C12orf56 (ProbeSet 11735607_a_at) / Fold change (ACY-1035/veh), C12orf56 (ProbeSet 11735607_a_at) / Fold change (Aza/veh), FGFR1OP (ProbeSet 11751329_s_at) / Fold change (ACY-1035/veh), FGFR1OP (ProbeSet 11751329_s_at) / Fold change (Aza/veh), VPS36 (ProbeSet 11739960_a_at) / Fold change (ACY-1035/veh), VPS36 (ProbeSet 11739960_a_at) / RFU SYPL1 (11715823_x_at) / Fold change /veh SYPL1 (11715823_x_at) / RFU IGFBP7 (11715501_s_at) / Fold change /veh IGFBP7 (11715501_s_at) / RFU REEP3 (11722064_at) / Fold change /veh REEP3 (11722064_at) / RFU IGLL1 (11728026_x_at) / Fold change /veh IGLL1 (11728026_x_at): dose or concentration left out as unconfirmed. Conditions: ProbeSet 11728314_at; LIST B.

Each structure is given as a SMILES string.

Consider `Nc1ccc(-c2cccs2)cc1NC(=O)c1ccc2c(c1)cc(C1CC1)n2CCN1CCOCC1` [ACY-1035], for which the “RFU, ZNF148” value is given as 188.07 RFU.
